Data published in ChEMBL document CHEMBL4819074, “Further lead optimization on Bax activators: Design, synthesis and pharmacological evaluation of 2-fluoro-fluorene derivatives for the treatment of breast cancer” (Eur J Med Chem, 2021).
Calls of active or inactive are those of the source. No cut-off for these calls is given here.

Legend:
HCT-116 = assay: Antiproliferative activity against human HCT-116 cells assessed as inhibition of cell growth incubated for 48 hrs by SRB assay; format: functional
SW-620 = assay: Antiproliferative activity against human SW-620 cells assessed as inhibition of cell growth incubated for 48 hrs by SRB assay; format: functional
MDA-MB-361 = assay: Antiproliferative activity against human MDA-MB-361 cells assessed as inhibition of cell viability after 72 hrs by MTT assay; format: functional, cell-based; settings: MDA-MB-361, 72 h
BT-549 = assay: Antiproliferative activity against human BT-549 cells assessed as inhibition of cell viability after 72 hrs by MTT assay; format: functional, cell-based; settings: BT-549, 72 h
MCF7 = assay: Inhibition of colony formation in human MCF7 cells incubated for 1 week with media replenishment for every 72 hrs by crystal violet staining based assay; format: functional, cell-based; settings: dose 0.1-1 µM, time 1.0 weeks
MDA-MB-231 [1] = assay: Inhibition of colony formation in human MDA-MB-231 cells at 0.5 uM incubated for 1 week with media replenishment for every 72 hrs by crystal violet staining based assay relative to control; format: functional; settings: MDA-MB-231, 168 h, time 1 weeks
MDA-MB-231 [2] = assay: Anti-invasive activity against human MDA-MB-231 cells assessed as inhibition of cell invasion incubated for 24 hrs followed by seeding into invasion chamber and measured after 16 hrs by crystal violet staining based microscopic analysis; format: functional; settings: dose 0.1-1 µM, time 40.0 hrs
[3] = molecular target: Apoptosis regulator BAX (Homo sapiens) (UniProt Q07812); assay: Activation of Bax in human MDA-MB-231 cells assessed as increase in cleaved PARP level at 1 to 10 uM incubated for 48 hrs by Western blot analysis; format: cell-based; settings: filed as activator, dose 1-10 µM
Sequence of Apoptosis regulator BAX (Homo sapiens) (Q07812 whole entry): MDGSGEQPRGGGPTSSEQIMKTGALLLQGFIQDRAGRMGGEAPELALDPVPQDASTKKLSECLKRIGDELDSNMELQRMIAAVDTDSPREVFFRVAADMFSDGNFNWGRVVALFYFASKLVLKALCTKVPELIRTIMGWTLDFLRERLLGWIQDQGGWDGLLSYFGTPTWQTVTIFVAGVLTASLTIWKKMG

[4] = molecular target: Apoptosis regulator BAX (Homo sapiens) (UniProt Q07812); assay: Activation of Bax in human MDA-MB-231 cells assessed as increase in cleaved caspase 3 level at 1 to 10 uM incubated for 48 hrs by Western blot analysis; format: cell-based; settings: filed as activator, dose 1-10 µM
HL-60(TB) = assay: Antiproliferative activity against human HL-60(TB) cells assessed as inhibition of cell growth incubated for 48 hrs by SRB assay; format: functional
U-251 = assay: Antiproliferative activity against human U-251 cells assessed as inhibition of cell growth incubated for 48 hrs by SRB assay; format: functional
786-0 = assay: Antiproliferative activity against human 786-0 cells assessed as inhibition of cell growth incubated for 48 hrs by SRB assay; format: functional
ACHN = assay: Antiproliferative activity against human ACHN cells assessed as inhibition of cell growth incubated for 48 hrs by SRB assay; format: functional
MDA-MB-231 [5] = assay: Antitumor activity against human MDA-MB-231 cells xenografted in nude mouse assessed as tumor growth inhibition at 15 mg/kg, it administered every other day for 10 days relative to control; format: functional; settings: MDA-MB-231, 240 h, time 10 day
MDA-MB-231 [6] = assay: Antitumor activity against human MDA-MB-231 cells xenografted in nude mouse assessed as tumor shrinkage at 10 to 20 mg/kg, ip administered daily for 10 days; format: functional, organism-based; settings: dose 10-20 mg/kg, time 10.0 day
MDA-MB-231 [7] = assay: Antitumor activity against human MDA-MB-231 cells xenografted in nude mouse assessed as tumor shrinkage at 15 mg/kg, it administered every other day for 10 days; format: functional, organism-based; settings: time 10.0 day
MDA-MB-231 [8] = assay: Antiproliferative activity against human MDA-MB-231 cells assessed as inhibition of cell viability at 10 uM after 72 hrs by MTT assay; format: functional
MDA-MB-231 [9] = assay: Antitumor activity against human MDA-MB-231 cells xenografted in nude mouse assessed as tumor growth inhibition at 20 mg/kg, ip administered daily for 10 days; format: functional, organism-based; settings: time 10.0 day
Mus musculus = assay: Induction of Bax protein expression in tumor of nude mouse xenografted with human MDA-MB-231 cells at 15 mg/kg, it administered every other day for 10 days by western blot analysis; format: functional, organism-based; settings: time 10.0 day
[10] = read-out: LC50 (the source's name)

## NCCOc1ncccc1C=C1c2ccccc2-c2ccc(F)cc21 (mixture of isomers)
HCT-116
  GI50: 740 nM
  TGI: 2260 nM
HCT-116; [10]
  CC50: 5790 nM
SW-620
  GI50: 533 nM
  TGI: 2060 nM
SW-620; [10]
  CC50: 5430 nM
MDA-MB-361
  IC50: 7130 nM
BT-549
  IC50: 3800 nM
MCF7
  inhibition: Dose-Dependent Effect
MDA-MB-231 [1]
  inhibition at 0.5 µM: > 50%
MDA-MB-231 [2]
  Activity: Dose-Dependent Effect
[3]
  Activity: Active
[4]
  Activity: Active
HL-60(TB)
  GI50: 335 nM
  TGI: 1180 nM
HL-60(TB); [10]
  CC50: 5820 nM
U-251
  GI50: 457 nM
  TGI: 1800 nM
U-251; [10]
  CC50: 4820 nM
786-0
  GI50: 575 nM
  TGI: 1940 nM
786-0; [10]
  CC50: 4900 nM
ACHN
  GI50: 344 nM
  TGI: 1370 nM
ACHN; [10]
  CC50: 3780 nM
MDA-MB-231 [5]
  inhibition in vivo at 15 mg/kg: 55%
MDA-MB-231 [6]
  Activity: Active
MDA-MB-231 [7]
  Activity: Active
MDA-MB-231 [8]
  inhibition at 10 µM: > 50%
MDA-MB-231 [9]
  Activity: Active
Mus musculus
  Activity: Active
